Measured values taken from US20160271513A1, “DRYING TECHNIQUES FOR MICROFLUIDIC AND OTHER SYSTEMS” (PRESIDENT AND FELLOWS OF HARVARD COLLEGE, priority 2013, published 2016).

Columns and labels:
[1] = room temperature
Protocol: To calculate the time available for crystalline nuclei to form, the saturation concentration of NaCl was measured in water at room temperature to be 6.3 mol/l.

[2] = Structure and storage stability of spray-dried drug nanoparticles by X-ray diffraction; type: physicochemical
Protocol: While the characteristic size below which particles were entirely amorphous is system-specific, the suppression of nucleation in small droplets relies on a generally applicable physical principle. […] To test this expectation, the structure of spray-dried clotrimazole, estradiol, and danazol was examined using X-ray diffraction (XRD). To keep the nucleation time the same, they were dissolved at 10% of their saturation concentration. In agreement with the above, these spray-dried drug nanoparticles were amorphous.
Production of amorphous drugs may require the addition of excipients. However, despite the presence of excipients, these drugs tend to crystallize with time leading to a change in their dissolution kinetics; this prevents their application in industry. […] These drugs all had glass transition temperatures, Tg, above room temperature; they were therefore glasses at room temperature.
XRD. X-ray diffraction was performed on spray-dried nanoparticles collected onto a one-side polished (100) Si wafer for 11 h. Measurements were acquired on a XDS2000 instrument (Scintac Inc.) using a Cu Kα (K alpha) source with a wavelength λ=0.154056 nm. The angle 2θ was varied between 2 and 70° at a rate of 1°/min.
It was expected to crystallize over time if stored at room temperature even if it is initially fully amorphous.
To test if the nebulator also allowed production of amorphous nanoparticles from materials with a Tg […] room temperature, which would be a glass at room temperature, clotrimazole, estradiol, and danazol, all poorly water soluble drugs with Tgs above 20° C., were spry dried. The size of the spray dried nanoparticles was determined by the initial solute concentration and the initial drop size. To ensure similar sizes of the spray dried nanoparticles, the initial solute concentration was fixed to 5 mg/ml. […] Thus, the nebulator allowed formulation of poorly water soluble drugs as amorphous nanoparticles.
To ease the handling drugs, fenofibrate was co-spray dried with different types of excipients. […] Four different types of Pluronics were compared: F68 and F127 are solids at room temperature and Pluronics P84 and P104 are pastes at room temperature.
By analogy to Pluronics, drugs spray dried from solutions containing equal weights of drugs and excipients were crystalline. By contrast, increasing the weight fraction of PVP five-fold results in XRD-amorphous danazol nanoparticles, in agreement to danazol nanoparticles formulated using the microfluidic spray drier.
To maintain the stability of spray dried amorphous nanoparticles and facilitate their handling by embedding them in an excipient matrix, PVP was deposited on a Si-wafer and subsequently drugs were spray dried into the PVP matrix. […] However, because excipients were not required to make the drug amorphous but rather to ease their handling, this procedure is generally applicable to the formulation of many different types of drugs, by contrast to the solid dispersions where the appropriate excipients must be selected for each system individually. Thus, the nebulator used in this example allowed the formulation of amorphous drug nanoparticles that optionally could be sprayed into an excipient matrix to facilitate their handling.

[3] = Crystalline fraction of spray-dried nanoparticles by differential scanning calorimetry; type: physicochemical
Protocol: The size of inorganic nanoparticles can influence their structure.
DSC. Differential scanning calorimetry was performed on spray-dried nanoparticles that are collected in an aluminium based Tzero DSC pan. To obtain sufficient amounts of samples, nanoparticles were collected for 11 h before being sealed in the DSC pan with a Tzero Hermetic Lid (TA Instruments). DSC was measured on a DSC Q200 at a nitrogen flow rate of 50 ml/min (TA instruments); the temperature was increased from 40° C. to 85° C. at a rate of 1° C./min and subsequently the sample was cooled to 25° C. at the same rate. To quantify the amount of nanoparticles, thermogravimetry analysis (TGA) was performed on these samples after completing the DSC analysis. For this, the hermetically sealed pans were opened and TGA was performed on these samples by increasing the temperature from 25° C. to 400° C. at a rate of 10° C./min under a N2 flow of 10 ml/min (Q5000, TA instrument). The absolute mass loss was measured between 100° C. and 300° C. and the DSC data was normalized accordingly.

[4] = spray-dried from ethanol without excipients, 0.28 MPa
[5] = spray-dried without excipients, stored under ambient conditions

## [Cl-].[Na+] [NaCl]
[1]
  saturation concentration of NaCl in water: 6.3 mol/L

## Clc1ccccc1C(c1ccccc1)(c1ccccc1)n1ccnc1 [clotrimazole]
[2]; [4]
  structure of spray-dried nanoparticles (XRD): amorphous
[2]; [5]
  crystallization on storage: did not crystallize if stored under ambient conditions for at least four weeks

## C#C[C@]1(O)CC[C@H]2[C@@H]3CCC4=Cc5oncc5C[C@]4(C)[C@H]3CC[C@@]21C [danazol]
[2]; co-spray dried with PVP, PVP five times the drug
  structure of spray-dried nanoparticles (XRD): XRD-amorphous
[2]; co-spray dried with Pluronics F68, F127, P84 or P104, equal weights
  structure of spray-dried nanoparticles (XRD): contain a significant fraction of crystalline regions
[2]; co-spray dried with equal weight of Pluronics (F68, F127, P84, P104), two weeks under ambient conditions
  crystallization on storage: this fraction markedly increases after storing the sample for two weeks under ambient conditions
[2]; pure drug spray dried onto a PVP matrix
  structure of spray-dried nanoparticles (XRD): XRD-amorphous
[2]; [4]
  structure of spray-dried nanoparticles (XRD): amorphous
[2]; [5]
  crystallization on storage: did not crystallize if stored under ambient conditions for at least four weeks

## CC(C)OC(=O)C(C)(C)Oc1ccc(C(=O)c2ccc(Cl)cc2)cc1 [fenofibrate]
[3]; 25 nm large particles
  crystalline fraction from area of the melting peak: 6 vol %
[3]; particles with a diameter of 20 nm
  crystalline fraction from area of the melting peak: 3 vol %
